The source of these data is patent publication US20150366845A1, “PHARMACEUTICAL COMPOSITION FOR DISEASES CAUSED BY PATHOGENIC MICROORGANISMS SUCH AS ASPERGILLUS” (POLA PHARMA INC., priority 2013, published 2015).

For experiment [1], the system named is Trichomonas vaginalis. As to the kind of experiment: Growth inhibition of clinically isolated Trichomonas vaginalis in Trichomonas medium F (Neutral Red colour, inverted microscope). Format: cell-based. Particulars: for Color / Result of microscopic observation: 72 hours at 37° C.; for Result of microscopic observation: inverted microscope. The method, then: The effect on Trichomonas vaginalis was investigated for luliconazole of the compound represented by the general formula (1). That is, 5×10^6 cells of clinically isolated Trichomonas vaginalis were seeded in Trichomonas medium F (6.5 mL, contained in tube) produced by Fujiyakuhin Co., Ltd. containing Neutral Red as a marker, and the preculture was carried out for 72 hours (preculture). It was confirmed that Trichomonas grew, the acid was actively produced, and Neutral Red was changed to be yellow. After that, the preculture was added to Trichomonas medium F by every 100 μL in order to carry out the main culture, to which 0.5 mL of a test solution was added. In this situation, the number of protozoas in the solution of preculture was 1.5×10^5 cells/mL. Three series of test solutions were prepared, in which the luliconazole concentrations were 200 μM (final concentration: 35.2 μM), 100 μM (final concentration: 17.6 μM), and 50 μM (final concentration: 8.8 μM), as luliconazole dissolved in 10% methanol saline solution. 0.5 mL of vehicle was added as a control. As for the vehicle, 10% methanol saline solution (final concentration: 0 μM) was used. Stirring was sufficiently performed after the addition, followed by culturing at 37° C. for 72 hours. After the completion of the cultivation, the color was discriminated, and the state of protozoas was observed by using an inverted microscope. […] The same or equivalent investigation as that of Example 1 was performed while changing luliconazole to lanoconazole.

Experiment [2] concerns Chlamydia trachomatis (D/UW3/Cx). As to the kind of experiment: Anti-intracellular parasite action, Chlamydia inclusion bodies in HeLa 229 host cells (fluorescence staining). In kind it is cell-based. The method, then: The anti-intracellular parasite action was investigated by using Chlamydia trachomatis (D/UW3/Cx). That is, Chlamydia trachomatis was cultured in the presence of ×2 dilution series of 8 to 64 μg/ml of luliconazole by using HeLa 229 cells as the host. MEM added with 8% thermally inactivated FBS, to which 1 μg/ml of cyclohexamide was added, was used as the medium, and the culture was performed for 72 hours in 5% carbon dioxide gas at 37° C. After the culture, inclusion bodies were subjected to the fluorescent staining to be apple green with Chlamydia FA reagent “Seiken” (produced by DENKA SEIKEN Co., Ltd.), and the observation was performed by using a fluorescence microscope.

Where [3] appears, read: final concentration 8.8 μM, Neutral Red marker.
Where [4] appears, read: final concentration 17.6 μM, Neutral Red marker.
Where [5] appears, read: final concentration 35.2 μM, Neutral Red marker (yellow = acid production by growing Trichomonas).

In the case of `N#C/C(=C1/SCC(c2ccccc2Cl)S1)n1ccnc1` (stereo not shown) [lanoconazole, 4-(2-chlorophenyl)-1,3-dithiolane-2-ylidene-1-imidazolyl acetonitrile], the Color result was “yellow” in experiment [1] (setting [3]), “red” in experiment [1] (setting [4]) and “red” in experiment [1] (setting [5]). In addition, the “Result of microscopic observation” value is “large number of protozoas were observed” in experiment [1] (final concentration 8.8 μM), “protozoas were observed slightly” in experiment [1] (final concentration 17.6 μM) and “no protozoa was observed” in experiment [1] (final concentration 35.2 μM).
For `N#C/C(=C1/SC[C@@H](c2ccc(Cl)cc2Cl)S1)n1ccnc1` [luliconazole, (R)-(−)-(E)-[4-(2,4-dichlorophenyl)-1,3-dithiolane-2-ylidene]-1-imidazolyl acetonitrile], the “growth of Trichomonas” value in experiment [1] (at 8.8 μM) is “inhibits the growth”. In addition, the Color result in experiment [1] (setting [3]) is listed as “yellow”; in experiment [1] (setting [4]), “red”; in experiment [1] (setting [5]), “red”. The “Result of microscopic observation” value in experiment [1] (final concentration 8.8 μM) is recorded as “protozoas were observed slightly”; in experiment [1] (final concentration 17.6 μM), “no protozoa was observed”; in experiment [1] (final concentration 35.2 μM), “no protozoa was observed”. Also, the “observation result of Chlamydia inclusion bodies” value in experiment [2] (treatment with 8 μg/mL, FIG. 1 panel (A)) was “dot-shaped Chlamydia inclusion bodies stained apple green were observed”; in experiment [2] (treatment with 16 μg/mL, FIG. 1 panel (B)), “dot-shaped Chlamydia inclusion bodies stained apple green were observed”; in experiment [2] (treatment with 32 μg/mL, FIG. 1 panel (C)), “No inclusion body was found”.
